Laboratory results: US20240158446A1, “CYCLIC COMPOUND HAVING SELECTIVE INHIBITORY ACTION ON KRAS OVER HRAS AND NRAS” (CHUGAI SEIYAKU KABUSHIKI KAISHA, priority 2021, published 2024)
Where two headings read alike, the source gives them in different places. Where a SMILES comes first, the peptide text is derived from it. Bridges are numbered along the chain shown (N, C = ends). [ ]: non-standard residue; d: D form. The star is where a group is joined. hPhe(3,5-F2-4-CF3) = N[C@@H](CCc1cc(F)c(C(F)(F)F)c(F)c1)C(=O)O; hPhe(3-Cl-4-CF3) = N[C@@H](CCc1ccc(C(F)(F)F)c(Cl)c1)C(=O)O; NPrPhe(4-CF3) = CCCN[C@@H](Cc1ccc(C(F)(F)F)cc1)C(=O)O; NMeGly(cPent) = CN[C@H](C(=O)O)C1CCCC1; NMeD = CN[C@@H](CC(=O)O)C(=O)O; Ac4c(3-oxa) = NC1(C(=O)O)COC1; NMeL = CN[C@@H](CC(C)C)C(=O)O; Morpholide = C1CN(*)CCO1; NMeA = CN[C@@H](C)C(=O)O; Ac5c = NC1(C(=O)O)CCCC1; Aze = O=C(O)[C@@H]1CCN1; Sar = CNCC(=O)O

Columns and labels:
[1] = molecular target: GDP-bound KRAS wild-type protein (Homo sapiens, UniProt P01116); experiment: Binding to KRAS by surface plasmon resonance (SPR), Single Cycle Kinetics; settings: GDP-bound KRAS wild-type protein, read-out: KRAS KD
GDP-bound KRAS wild-type protein, sequence (P01116 whole entry): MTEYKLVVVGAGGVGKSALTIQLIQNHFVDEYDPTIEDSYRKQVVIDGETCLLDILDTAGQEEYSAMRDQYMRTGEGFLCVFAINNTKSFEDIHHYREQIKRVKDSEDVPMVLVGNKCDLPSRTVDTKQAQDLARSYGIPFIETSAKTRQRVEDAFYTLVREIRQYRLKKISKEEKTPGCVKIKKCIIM

[2] = molecular target: GDP-bound NRAS wild-type protein (Homo sapiens, UniProt P01111); experiment: Binding to NRAS by surface plasmon resonance (SPR), Single Cycle Kinetics; settings: for NRAS/KRAS (ratio of KD value for NRAS to KD value for KRAS) / NRAS/KRAS (ratio of KD value with respect to NRAS to KD value with respect to KRAS): SPR, GDP-bound NRAS wild-type protein vs GDP-bound KRAS wild-type protein
GDP-bound NRAS wild-type protein, sequence (P01111 whole entry): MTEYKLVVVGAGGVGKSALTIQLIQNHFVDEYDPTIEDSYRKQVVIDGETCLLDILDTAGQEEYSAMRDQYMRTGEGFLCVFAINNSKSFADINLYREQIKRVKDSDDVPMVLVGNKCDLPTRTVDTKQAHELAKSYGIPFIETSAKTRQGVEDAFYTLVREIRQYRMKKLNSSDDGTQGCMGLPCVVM

[3] = molecular target: GDP-bound HRAS wild-type protein (Homo sapiens, UniProt P01112); experiment: Binding to HRAS by surface plasmon resonance (SPR), Single Cycle Kinetics; settings: for HRAS/KRAS (ratio of KD value for HRAS to KD value for KRAS) / HRAS/KRAS (ratio of KD value with respect to HRAS to KD value with respect to KRAS): SPR, GDP-bound HRAS wild-type protein vs GDP-bound KRAS wild-type protein
GDP-bound HRAS wild-type protein, sequence (P01112 whole entry): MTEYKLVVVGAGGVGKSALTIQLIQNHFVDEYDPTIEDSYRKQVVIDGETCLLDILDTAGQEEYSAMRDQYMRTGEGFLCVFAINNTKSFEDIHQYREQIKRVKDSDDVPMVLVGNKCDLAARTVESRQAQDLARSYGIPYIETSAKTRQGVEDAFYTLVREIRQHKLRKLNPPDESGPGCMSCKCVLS

[4] = SPR Single Cycle Kinetics, 1:1 binding model

Row | Compound | Kd ([1]; SPR, Single Cycle Kinetics) | NRAS/KRAS (ratio of KD value for NRAS to KD value for KRAS) [2] | HRAS/KRAS (ratio of KD value for HRAS to KD value for KRAS) [3] | Kd [1, 4] | NRAS/KRAS (ratio of KD value with respect to NRAS to KD value with respect to KRAS) [2] | HRAS/KRAS (ratio of KD value with respect to HRAS to KD value with respect to KRAS) [3] | NRAS/KRAS (ratio of KD value with respect to GDP-bound NRAS wild-type protein to KD value with respect to KRAS) ([2]; SPR KD ratio NRAS/KRAS, class symbols) | HRAS/KRAS (ratio of KD value with respect to GDP-bound HRAS wild-type protein to KD value with respect to KRAS) ([3]; SPR KD ratio HRAS/KRAS, class symbols)
1 | C#CCN1CC(=O)N(C)[C@H]2C/C=C\CCN(C2=O)[C@@H](Cc2ccc(C(F)(F)F)cc2)C(=O)N(C)CC(=O)N[C@@H](CCc2cc(F)c(C(F)(F)F)c(F)c2)C(=O)N2C[C@H](OCC)C[C@H]2C(=O)NC2(CC(C)(C)C2)C(=O)N(C)[C@@H](C2CCCC2)C(=O)N(C)[C@H](C(=O)N(C)C)CC(=O)N(C)[C@@H](CCC)C(=O)N[C@@H]([C@@H](C)CC)C1=O [PP2103] | 0.25 nM | A (a compound having 10 or more and less than 20 is denoted as A) | A (a compound having 10 or more and less than 20 is denoted as A) |  |  |  |  | 
2 | CCCN1C(=O)[C@@H]2CCN2C(=O)[C@H](C)N(C)C(=O)[C@H]([C@@H](C)CC)NC(=O)[C@H](CC(C)C)N(C)C(=O)C[C@@H](C(=O)N2CCOCC2)N(C)C(=O)[C@H](C2CCCC2)N(C)C(=O)C2(CCCC2)NC(=O)[C@@H]2CCCN2C(=O)[C@H](CCc2ccc(C(F)(F)F)c(Cl)c2)NC(=O)CN(C)C(=O)[C@@H]1Cc1ccc(C(F)(F)F)cc1 [PP0053] ([NMeL]I[NMeA][Aze][NPrPhe(4-CF3)][Sar][hPhe(3-Cl-4-CF3)]P[Ac5c][NMeGly(cPent)][NMeD]-Morpholide; lactam N-11) |  | C (A compound having a KD ratio of 0.1 or more and less than 3 is denoted as C) | C (A compound having a KD ratio of 0.1 or more and less than 3 is denoted as C) | 0.12 nM |  |  |  | 
3 | CCO[C@@H]1C[C@H]2C(=O)NC3(CC(C)(C)C3)C(=O)N(C)[C@@H](C(CC)CC)C(=O)N(C)[C@H](C(=O)N3CCCC3)CC(=O)N(C)[C@@H](C)C(=O)N[C@@H]([C@@H](C)CC)C(=O)N(C)CC(=O)N(C)[C@H]3C/C=C\CCN(C3=O)[C@@H](Cc3ccc(C(F)(F)F)cc3)C(=O)N(C)CC(=O)N[C@@H](CCc3ccc(C(F)(F)F)c(OC)c3)C(=O)N2C1 [PP2163] | 0.41 nM | A (a compound having 10 or more and less than 20 is denoted as A) | A (a compound having 10 or more and less than 20 is denoted as A) |  |  |  |  | 
4 | CCC[C@H]1C(=O)N[C@@H]([C@@H](C)CC)C(=O)N(C)CC(=O)N(C)[C@H]2C/C=C\CCN(C2=O)[C@@H](Cc2ccc(C)cc2)C(=O)N(C)CC(=O)N[C@@H](CCc2ccc(C(F)(F)F)c(OC)c2)C(=O)N2CC3(CC3)C[C@H]2C(=O)NC2(CC(C)(C)C2)C(=O)N(C)[C@@H](CC(F)(F)F)C(=O)N(C)[C@H](C(=O)N(C)C)CC(=O)N1C [PP3012] | 1.9 nM | A (a compound having 10 or more and less than 20 is denoted as A) | A (a compound having 10 or more and less than 20 is denoted as A) |  |  |  |  | 
5 | CCO[C@@H]1C[C@H]2C(=O)NC3(CCC3)C(=O)N(C)[C@@H](C3CCCC3)C(=O)N(C)[C@H](C(=O)N(C)C)CC(=O)N(C)[C@@H](CC)C(=O)N[C@@H]([C@@H](C)CC)C(=O)N(C)CC(=O)N(C)[C@H]3CCCCN(C3=O)[C@@H](Cc3ccc(C(F)(F)F)cc3)C(=O)N(C)CC(=O)N[C@@H](CCc3ccc(Cl)c(Cl)c3)C(=O)N2C1 [PP0987] | 0.024 nM | C (A compound having a KD ratio of 0.1 or more and less than 3 is denoted as C) | C (A compound having a KD ratio of 0.1 or more and less than 3 is denoted as C) |  |  |  |  | 
6 | CCO[C@@H]1C[C@H]2C(=O)NC3(CC(C)(C)C3)C(=O)N(C)[C@@H](C3CCCC3)C(=O)N(C)[C@H](C(=O)N3CCOCC3)CC(=O)N(C)[C@@H](CC(C)C)C(=O)N[C@@H]([C@@H](C)CC)C(=O)N(C)CC(=O)N(C)[C@H]3CCCCCN(C3=O)[C@@H](Cc3ccc(C(F)(F)F)cc3)C(=O)N(C)CC(=O)N[C@@H](CCc3cc(F)c(C(F)(F)F)c(F)c3)C(=O)N2C1 [PP0726] |  |  |  | 1.1 nM | B (a compound having 3 or more and less than 10 is denoted as B) | B (a compound having 3 or more and less than 10 is denoted as B) |  | 
7 | CCC[C@H]1C(=O)N[C@@H]([C@@H](C)CC)C(=O)N(C)CC(=O)N(C)[C@H]2C/C=C\CCN(C2=O)[C@@H](Cc2ccc(C(F)(F)F)cc2)C(=O)N(C)CC(=O)N[C@@H](CCc2ccc3sc(F)c(C)c3c2)C(=O)N2C[C@H](OCC)C[C@H]2C(=O)NC2(CC(C)(C)C2)C(=O)N(C)[C@@H](C2CCCC2)C(=O)N(C)[C@H](C(=O)N(C)C)CC(=O)N1C [PP2948] |  |  |  | 0.055 nM |  |  | A (a compound having 10 or more and less than 20 is denoted as A) | A (a compound having 10 or more and less than 20 is denoted as A)
8 | CCO[C@@H]1C[C@H]2C(=O)NC3(CCC3)C(=O)N(C)[C@@H](C3CCCC3)C(=O)N(C)[C@H](C(=O)N(C)C)CC(=O)N(C)[C@@H](CC)C(=O)N[C@@H]([C@@H](C)CC)C(=O)N3CCSC[C@H]3C(=O)N(C)[C@H]3C/C=C\CCN(C3=O)[C@@H](Cc3ccc(C(F)(F)F)cc3)C(=O)N(C)CC(=O)N[C@@H](CCc3cc(F)c(C(F)(F)F)c(F)c3)C(=O)N2C1 [PP1060] | 2.6 nM | A (a compound having 10 or more and less than 20 is denoted as A) | A (a compound having 10 or more and less than 20 is denoted as A) |  |  |  |  | 
9 | CCCN1C(=O)CN(C)C(=O)[C@@H]2CCN2C(=O)[C@H]([C@@H](C)CC)NC(=O)[C@H](CC(C)C)N(C)C(=O)C[C@@H](C(=O)N2CCOCC2)N(C)C(=O)[C@H](C2CCCC2)N(C)C(=O)C2(COC2)NC(=O)[C@@H]2CCCN2C(=O)[C@H](CCc2cc(F)c(C(F)(F)F)c(F)c2)NC(=O)CN(C)C(=O)[C@@H]1Cc1ccc(C(F)(F)F)cc1 [PP0782] ([NMeL]I[Aze][Sar][NPrPhe(4-CF3)][Sar][hPhe(3,5-F2-4-CF3)]P[Ac4c(3-oxa)][NMeGly(cPent)][NMeD]-Morpholide; lactam N-11) |  |  |  | 2.3 nM | B (a compound having 3 or more and less than 10 is denoted as B) | B (a compound having 3 or more and less than 10 is denoted as B) |  | 
10 | C=CCC[C@H]1C(=O)N[C@@H]([C@@H](C)CC)C(=O)N(C)CC(=O)N(C)[C@H]2CCCCN(C2=O)[C@@H](Cc2ccc(C(F)(F)F)cc2)C(=O)N(C)CC(=O)N[C@@H](CCc2cc(F)c(C(F)(F)F)c(F)c2)C(=O)N2C[C@H](OCC)C[C@H]2C(=O)N[C@](C)(CC=C)C(=O)N(C)[C@@H](C2CCCC2)C(=O)N(C)[C@H](C(=O)N2CCOCC2)CC(=O)N1C [PP0875] | 0.096 nM | C (A compound having a KD ratio of 0.1 or more and less than 3 is denoted as C) | B (a compound having 3 or more and less than 10 is denoted as B) |  |  |  |  | 
